The values that follow come from patent US20140094465A1, “Compounds as S-Nitrosoglutathione Reductase Inhibitors” (N30 PHARMACEUTICALS, INC., priority 2011, published 2014).

Series [1] deals with T1, S-nitrosoglutathione reductase (GSNOR) (Homo sapiens, UniProt P11766).
T1 construct: made in house; host or cells: E. coli
In words: GSNOR assay (inhibition of GSNOR activity, NADH absorbance at 340 nm). Type of series: biochemical. The conditions noted are these: GSNOR inhibitor activity, Tables 1-6; read-out: IC50 range. In short, it runs like this:
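Recombinant GSNOR purified from E. coli, tag removed. Final conditions: 100 mM NaPO4 pH 7.4, 0.240 mM GSNO, 0.300 mM NADH, 0.5 μg/mL enzyme, 1% DMSO; NADH loss followed as 340 nm absorbance change over 3 min at 25 °C. Compounds 100–0.003 μM, triplicate; IC50 by curve analysis.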

A short description of series [2]: Mouse pharmacokinetic (PK) study. Type of series: in vivo. The conditions noted are these: male, BALB/c, plasma, po, 10 mg/kg, male BALB/c mice, 2 mg/kg IV, 10 mg/kg PO, read-out: oral bioavailability (% F). The text has this:
The mouse was used to determine the pharmacokinetics of compounds of the invention. This species is widely used to assess the bioavailability of compounds by administering both oral (PO) and intravenous (IV) test articles. Efficacy of the compounds of the invention was compared by assessing plasma exposure in male BALB/c mice either via IV or PO administration at the times of peak activity.
Compounds of the invention were reconstituted in a phosphate buffered saline (PBS)/10% Solutol (HS 15) clear solution resulting in a concentration of 0.2 mg/mL and administered to mice (2 mg/kg) as a single IV dose. Animals were dosed via the lateral tail vein. Blood samples were collected at designated time points (0.083, 0.25, 0.5, 1, 2, 4, 8, 16, 24 hours) by cardiac puncture under isoflurane anesthesia (up to 1 mL blood per animal). The blood was collected into tubes containing Li-Heparin. The blood samples were kept on ice until centrifugation within approximately 30 minutes of collection. The plasma was transferred into labeled polypropylene tubes and frozen at −70° C. until analyzed by LC/MS/MS.
The compounds of the invention were reconstituted in 40% Propylene Glycol/40% Propylene Carbonate/20% of a 5% Sucrose clear solution resulting in a concentration of 2 mg/mL and administered to mice (10 mg/kg) as a single oral dose via gavage. Blood samples were collected at 0.25, 0.5, 1, 2, 4, 8, 12, 16, 20 and 24 hours post dose by cardiac puncture under isoflurane anesthesia. The blood was collected in tubes containing Li-Heparin. The blood samples were kept on ice until centrifugation within approximately 30 minutes of collection. The plasma was transferred into labeled polypropylene tubes and frozen at −70° C. until analyzed by LC/MS/MS.
Plasma samples at each timepoint were analyzed using a LC-MS/MS with a lower limit of quantification (LLOQ) of 1 ng/mL. Plasma was analyzed to determine the amount of the compound of the invention in each sample and regression curves generated for each compounds of the invention in the relevant matrixes.
WinNonlin analysis was used for calculating PK parameters for both the IV and PO administrations:
PK parameters for IV portion—AUClast; AUCINF; T1/2; Cl; Vss; Cmax; MRT
PK parameters for PO portion—AUClast; AUCINF; T1/2; Cmax; Cl, MRT.
In addition to the above PK parameters, bioavailability (% F) was calculated.

The test system of series [3] is dextran sodium sulfate (DSS)-induced IBD. In words: Acute prophylactic model of DSS-induced IBD. The series is classed as in vivo, mouse. The note with it: for decrease of percent of mice with severe colon injury scores via endoscopy / decrease of percent of mice with severe colon injury scores via histopathology: prophylactic. The text has this: Acute and chronic models of dextran sodium sulfate (DSS)-induced IBD in mice were used to explore efficacy of GSNORi against this disease. Acute and chronic DSS-induced IBD are widely used and well characterized models that induce pathological changes in the colon similar to those observed in the human disease. In these models and in human disease, epithelial cells within the crypts of the colon are disrupted, leading to dysfunction of the epithelial barrier and the ensuing tissue inflammation, edema, and ulceration. GSNORi therapy may benefit IBD by restoring s-nitrosoglutathione (GSNO) levels, and thus prevent or reverse the epithelial barrier dysfunction. Experimental IBD was induced by administration of DSS in the drinking water of male C57Bl/6 mice (N=8 to 10 mice per group) for 6 consecutive days. GSNORi was dosed orally at doses of 0.1 to 10 mg/kg/day for 10 days starting two days prior to and continuing two days post DSS exposure. […] Levels of circulating cytokines involved in inflammatory pathways were also assessed. The effect of GSNORi was compared to vehicle treated controls. […] Naïve mice (N=5) were also assessed as a normal tissue control.

The structures appear in SMILES notation. pIC50: −log10 of the molar value. A value given as a limit tells only on which side of the number the result lay.

T1 sequence (P11766 whole entry): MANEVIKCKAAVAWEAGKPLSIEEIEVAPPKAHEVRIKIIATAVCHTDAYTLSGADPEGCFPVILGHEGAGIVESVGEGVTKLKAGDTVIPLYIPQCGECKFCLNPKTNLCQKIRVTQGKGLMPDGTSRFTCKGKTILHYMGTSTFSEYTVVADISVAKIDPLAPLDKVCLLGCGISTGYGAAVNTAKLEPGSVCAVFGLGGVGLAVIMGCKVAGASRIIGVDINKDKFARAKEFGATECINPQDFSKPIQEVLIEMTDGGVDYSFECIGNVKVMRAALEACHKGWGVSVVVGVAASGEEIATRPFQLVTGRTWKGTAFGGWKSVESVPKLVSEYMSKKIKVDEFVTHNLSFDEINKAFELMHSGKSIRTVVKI

Usually pIC50 stands for the IC50 on a negative log10 scale, so that one unit is a factor of ten. As a reminder, the bioavailability is the share of a dose that reaches the circulation, judged against a reference dose that is usually intravenous. Turning to `O=c1c(-c2ccc(-c3nnn[nH]3)cc2)c(C(F)(F)F)oc2cc(O)ccc12` [IV-23], in series [1], the pIC50 was greater than 7.00. Besides, in series [2], the bioavailability was greater than 9%. Further, in series [3] (oral 10 mg/kg/day for 10 days), the “decrease of percent of mice with severe colon injury scores via endoscopy” value is 75 % of vehicle control and the “decrease of percent of mice with severe colon injury scores via histopathology” value is 17 % of vehicle control.
Turning to `O=c1[nH]c(-c2ccc(-c3c(C(F)(F)F)oc4cc(O)ccc4c3=O)cc2)no1` [IV-31], the pIC50 in series [1] is greater than 7.00. Further, in series [2], the bioavailability is greater than 9%.
Turning to `O=C(O)c1ccc(-c2ccc3cc(O)ccc3c2)c(F)c1` [III-2], in series [1], the pIC50 was greater than 7.00. For the same compound, the bioavailability in series [2] is greater than 9%. In series [3] (oral 10 mg/kg/day for 10 days), the “decrease of percent of mice with severe colon injury scores via histopathology” value is recorded as 26 % of vehicle control.
Turning to `O=c1c2ccc(O)cc2oc(C(F)(F)F)c1[C@H]1CC[C@H](C(=O)O)CC1` [IV-25], the pIC50 in series [1] was greater than 7.00. In addition, in series [2], the bioavailability was greater than 9%. In series [3] (oral 0.1 mg/kg/day for 10 days), the “decrease of percent of mice with severe colon injury scores via pathology” value is 12 % of vehicle control and the “decrease of percent of mice with severe colon injury scores via endoscopy” value was 38 % of vehicle control. In addition, in series [3] (oral 1 mg/kg/day for 10 days), the “decrease of percent of mice with severe colon injury scores via endoscopy” value is recorded as 25 % of vehicle control and the “decrease of percent of mice with severe colon injury scores via histopathology” value is 33 % of vehicle control.
Turning to `O=C(O)c1ccc(-c2c(C(F)(F)F)oc3cc(O)ccc3c2=O)c(F)c1` [IV-38], the pIC50 in series [1] was greater than 7.00. Further, the bioavailability in series [2] is greater than 9%. For the same compound, in series [3] (oral 10 mg/kg/day for 10 days), the “decrease of percent of mice with severe colon injury scores via endoscopy” value is 58 % of vehicle control and the “decrease of percent of mice with severe colon injury scores via histopathology” value is recorded as 15 % of vehicle control.
